Several values for one entry are separate records, joined by “and”; a condition that tells them apart may be missing. Equal entries are not always repeated. Structures can show the parent of a compound that is named as a salt. Where two headings read alike, the source gives them in different places.
Experiments:
2019-nCoV S protein = 2019-nCoV S protein (Severe acute respiratory syndrome coronavirus 2, UniProt P0DTC2); assay type: binding, SARS-CoV-2; conditions: for ΔTm: 100 µM
Omicron BA.5 pseudovirus = assay type: cell-based, SARS-CoV-2
[1] = molecular target: 2019-nCoV S protein–hACE2 complex (Severe acute respiratory syndrome coronavirus 2, UniProt P0DTC2); assay type: cell-based, SARS-CoV-2; human
2019-nCoV S-RBD = 2019-nCoV S-RBD (Severe acute respiratory syndrome coronavirus 2, UniProt P0DTC2); assay type: binding, SARS-CoV-2
[2] = system: Delta (B.1.617.2) pseudovirus; assay type: cell-based, SARS-CoV-2
2019-nCoV pseudovirus = assay type: cell-based, SARS-CoV-2
HEK293T cells = assay type: cell-based
[3] = read-out: KD (equilibrium dissociation constant)
[4] = read-out: IC50 (concentration inducing 50% cell death)

| Molecule | Tm (2019-nCoV S protein) [°C] | ΔTm (2019-nCoV S protein) | Effect on pseudovirus entry (Omicron BA.5 pseudovirus) | IC50 (Omicron BA.5 pseudovirus) [µM] | Reduction in S-protein pull-downs [1] [%] | Reduction in hACE2 pull-downs [1] [%] | Kd (2019-nCoV S-RBD; read-out: KD) | Kd (2019-nCoV S-RBD; [3]) [µM] | Kd (2019-nCoV S-RBD; read-out: Mean KD ± SD) [µM] | Effect on pseudovirus entry [2] | IC50 [2] [µM] | Effect on pseudovirus entry (2019-nCoV pseudovirus) | IC50 (2019-nCoV pseudovirus) [µM] | CETSA classification (2019-nCoV S protein) | Fold-change ratio of soluble S-protein band intensity relative to controls (2019-nCoV S protein) | Cell viability (HEK293T cells) | CC50 (HEK293T cells; read-out: Cytotoxicity CC50) [µM] | other results |
| --- | --- | --- | --- | --- | --- | --- | --- | --- | --- | --- | --- | --- | --- | --- | --- | --- | --- | --- |
| DDAVP | 48.9 | −0.7 °C | – | – | – | – | – | – | – | – | – | – | – | – | – | – | – | – |
| CCCCCCCCC=CCCCCCCCC(=O)OCC(C[N+](C)(C)C)OC(=O)CCCCCCCC=CCCCCCCCC (centres unmarked) [DOTAP, DOTAP chloride] | – | +9.1 °C | at 25 μM reduced the entry of 2019-nCoV and Omicron pseudoviruses | > 100 | 51.4 | 46.8 | 79 µM | 49.9 | 64.5 ± 20.6 | limited efficacy against the Delta variant | > 100 | at 25 μM reduced the entry of 2019-nCoV and Omicron pseudoviruses | > 100 | CETSA-positive | 3.49 ± 0.50 | above 90% | – | – |
| Bacitracin zinc [BZ] | 43.4 | −6.1 °C | – | – | 61.8 | 95.7 | – | 11.4 | – | – | – | – | – | – | – | – | – | CC50 (HEK293T cells; [4]): 79.9 µM |
| CC(OC(=O)OC1CCCCC1)OC(=O)C1=C(CSc2nnnn2CC[NH+](C)C)CSC2C(NC(=O)Cc3csc(N)n3)C(=O)N12 (centres unmarked) [CTM-HCl, cefotiam hexetil hydrochloride] | – | +2.2 °C | reduced entry of the ancestral and Omicron strains in a concentration-dependent manner | > 100 | 32.5 | 7.9 | 142 µM | 142 | 142 | marginal and detectable only at 50 μM | > 100 | reduced entry of the ancestral and Omicron strains in a concentration-dependent manner | 94.6 | CETSA-positive | 1.64 ± 0.21 | above 90% | > 100 | Selectivity Index (SI) (2019-nCoV pseudovirus): > 1.06 |
| angiotensin II [Ang II] | 55.4 | +5.8 °C | – | – | – | – | – | 30.7 | – | – | – | – | – | – | – | above 90% | – | Effect on S-RBD/hACE2 co-immunoprecipitation [1]: did not appreciably reduce |
| melittin | – | +0.7 °C | reduced entry of all three pseudoviruses at 1.25 μM | > 1.25 | 85.1 | 65.8 | 57 µM and 34.1 µM and 56.8 µM | 35 | 49.6 ± 12.2 | reduced entry of all three pseudoviruses at 1.25 μM | 1.99 | reduced entry of all three pseudoviruses at 1.25 μM | 1.83 | did not meet the positive threshold | 2.70 ± 0.52 | – | 2.3 | Selectivity Index (SI) (Omicron BA.5 pseudovirus): < 1.84; Selectivity Index (SI) [2]: 1.16; Selectivity Index (SI) (2019-nCoV pseudovirus): 1.26; Therapeutic index (SI) (2019-nCoV pseudovirus): ~ 1.2; CC50 (HEK293T cells; [4]): 2.3 µM |
| CC(=O)NC1C(OC2c3ccc(c(Cl)c3)Oc3cc4cc(c3OC3OC(CO)C(O)C(O)C3NC(=O)CCCCCCC(C)C)Oc3ccc(cc3Cl)CC3NC(=O)C(N)c5ccc(O)c(c5)Oc5cc(O)cc(c5)C(NC3=O)C(=O)NC4C(=O)NC3C(=O)NC2C(=O)NC(C(=O)O)c2cc(O)cc(OC4OC(CO)C(O)C(O)C4O)c2-c2cc3ccc2O)OC(CO)C(O)C1O (centres unmarked) [teicoplanin] | – | −4.0 °C | reduced Omicron pseudovirus entry in a concentration-dependent manner | > 100 | 52.2 | 54.4 | – | – | – | observed only at 100 μM | > 100 | effective against the ancestral strain at 25–50 μM | > 100 | did not meet the positive threshold | – | above 90% | > 100 | – |

From article PMC13607727 (International Journal of Molecular Sciences, 2026)
